We go through four substances from patent publication US8278072B1, “Method for synthesis of sialylated products using reversible sialylation” (Health Research, Inc., priority 2007, dated 2012).

Type in all cases: biochemical
One experiment has as its target T1, ST6Gal-I (Rattus norvegicus, UniProt P13721).
T1 construct: purchased Calbiochem
T1 sequence (P13721 1-403): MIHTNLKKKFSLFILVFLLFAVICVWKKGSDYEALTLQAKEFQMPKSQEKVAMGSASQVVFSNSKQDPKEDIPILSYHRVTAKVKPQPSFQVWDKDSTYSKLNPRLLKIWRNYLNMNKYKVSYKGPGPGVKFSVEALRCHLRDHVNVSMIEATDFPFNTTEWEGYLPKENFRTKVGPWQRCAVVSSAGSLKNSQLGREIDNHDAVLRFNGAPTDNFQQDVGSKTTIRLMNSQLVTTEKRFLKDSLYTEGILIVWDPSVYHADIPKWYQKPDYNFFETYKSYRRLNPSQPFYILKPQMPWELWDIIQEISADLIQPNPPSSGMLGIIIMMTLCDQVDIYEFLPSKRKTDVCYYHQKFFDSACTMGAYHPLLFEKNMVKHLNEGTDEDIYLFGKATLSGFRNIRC
Put plainly: Donor specificity for reverse sialylation, ST6Gal-I. The conditions noted are these: 0.05 mM donor, 0.8 mM 5′-CMP, 3 mU ST6Gal-I. The text has this: (§1) We determined if reverse sialylation was more pronounced for ST3Gal-II in comparison to other sialyltransferases. Thus two other cloned rat sialyltransferases ST3Gal-III (or α2,3(N)ST) and ST6Gal-I (or α2,6(N)ST) (14) were examined. For these studies, we generated two molecules: i) [9-^3H]NeuAcα2,6Galβ1,4GlcNAcβ-O—Al (Al-Allyl) was made by the reaction of Galβ1,4GlcNAcβ-O—Al and CMP-[9-^3H]NeuAc in the presence of α2,6sialyltransferase, ST6Gal-I. (The radioactive product was separated using Biogel P2 column using a protocol similar to that described above.); and ii) [9-^3H]NeuAcα2,3Galβ1,4 GlcNAcβ-O—Al was similarly produced by reacting Galβ1,4GlcNAcβ-O—Al and CMP-[9-^3H]NeuAc in the presence of α2,3sialyltransferase ST3Gal-III. […] However, it is efficiently sialylated by both ST3Gal-III and ST6Gal-I. The ability of these two radiolabeled molecules ([14] and [15]) to act as [9-^3H]NeuAc donors was assayed in studies (Table IV) where the compounds were mixed with excess 5′-CMP, enzyme and acceptors with benzyl aglycan group. C18 cartridges were then used to measure the extent of [9-^3H]NeuAc transferred to acceptor using reaction scheme-II. Because all acceptors used in this table are efficiently sialylated by enzymes listed in the adjacent columns, these experiments essentially measure the amount of CMP-NeuAc formed using particular donor-enzyme pairs.
(§2) Thus, reverse sialylation takes place with ST3Gal-II.

In experiment [1] the target is T2, ST3Gal-II (Rattus norvegicus, UniProt Q11205).
T2 construct: purchased Calbiochem
T2 sequence (Q11205 1-350): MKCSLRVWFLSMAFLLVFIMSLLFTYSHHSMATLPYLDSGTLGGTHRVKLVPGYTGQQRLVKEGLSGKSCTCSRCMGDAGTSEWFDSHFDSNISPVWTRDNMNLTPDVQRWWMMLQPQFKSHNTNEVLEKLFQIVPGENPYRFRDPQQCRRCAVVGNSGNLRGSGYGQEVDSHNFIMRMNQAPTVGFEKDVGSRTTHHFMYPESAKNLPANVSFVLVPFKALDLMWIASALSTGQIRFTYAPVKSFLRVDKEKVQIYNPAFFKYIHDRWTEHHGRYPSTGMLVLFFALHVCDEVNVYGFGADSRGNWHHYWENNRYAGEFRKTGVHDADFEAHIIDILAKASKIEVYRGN
Put plainly: Donor specificity for reverse sialylation, ST3Gal-II. Particulars: 0.05 mM donor, […] 5′-CMP, acceptor 5 mM D-Fuc(1,3GalNAc(-O-Bn, 3 mU ST3Gal-II)); zero = slightly below background.
Text: as §1, with “pairs. […]” for “pairs.”

In experiment [2] the target is T2, ST3Gal-II. Put plainly: Exchange of radiolabeled sialyl residues in bovine brain gangliosides (TLC). Particulars: bovine brain ganglioside mixture, CMP-[9-3H]NeuAc or CMP-[14C]NeuAc. From the text: Rat recombinant ST3Gal-II (α2,3(0)ST) was purchased from Calbiochem. Three different lots of ST3Gal-II purchased from Calbiochem and used in this study yielded similar results. CMP-NeuAc was obtained from Sigma. All enzymatic sialylation reactions were typically carried out in NaCa Codylate buffer pH6.0 in presence of enzyme acceptor CMP-[9-^3H]NeuAc or (NEN-DuPont) CMP[^14C]NeuAc. The concentration of total CMP-NeuAc was adjusted in individual reactions by supplementing with non-radioactive CMP-NeuAc. Products formed were separated using different chromatograph procedures. • a) Gel chromatography on Biogel P2 and P6 columns: A Biogel P2 column or Biogel P6 column (Fine Mesh; 1.0×116.0 cm) was used with 0.1 M pyridine acetate (pH5.4) as the eluent at room temperature. […] The first peak of radioactivity emerging in this void volume was collected and lyophilized to dryness. […]
Both [9-^3H] and [^14C] sialic acid labeled bovine brain ganglioside mixtures were subjected to TLC using CHcl3:CH3OH:0.2% aqueous CaCl2 (v/v 60:40:9) as the solvent system. The radioactivities were located on the TLC plates by scraping silica gel from 0.5 cm width segments of the TLC plates and then counting the radioactivity after soaking silica in 2.0 ml water by scintillation counting. […]

The target in a further experiment is T3, ST3Gal-III (Rattus norvegicus, UniProt Q02734).
T3 construct: purchased Calbiochem
T3 sequence (Q02734 1-374): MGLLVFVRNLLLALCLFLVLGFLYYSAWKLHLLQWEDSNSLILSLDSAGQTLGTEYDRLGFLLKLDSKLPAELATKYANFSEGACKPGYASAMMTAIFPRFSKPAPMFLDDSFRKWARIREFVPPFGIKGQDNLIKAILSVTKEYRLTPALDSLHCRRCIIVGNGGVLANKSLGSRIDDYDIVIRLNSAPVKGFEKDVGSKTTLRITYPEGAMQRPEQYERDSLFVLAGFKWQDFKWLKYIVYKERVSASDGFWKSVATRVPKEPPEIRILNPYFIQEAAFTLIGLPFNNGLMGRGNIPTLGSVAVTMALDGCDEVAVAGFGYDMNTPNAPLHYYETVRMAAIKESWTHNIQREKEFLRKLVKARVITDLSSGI
Put plainly: Donor specificity for reverse sialylation, ST3Gal-III. The conditions noted are these: 0.05 mM donor, 0.8 mM 5′-CMP.
Text: as §1, §2

Marks after values point to notes of the source that are not given here.

As to “[9-^3H]NeuAcα2,6Galβ1,4GlcNAcβ-O—Al [[14]]”, the Radiolabeled acceptor/product formed at ST6Gal-I (acceptor 2.5 mM Galβ1,4GlcNAcβ1,3Galβ1,4GlcNAcβ-O-Bn) is given as 45 CPM; on ST6Gal-I (acceptor 2.5 mM Galβ1,4GlcNAcβ1,6(Galβ1,3)GalNAcα-O-Bn), 36 CPM; on ST6Gal-I (acceptor 2.5 mM Galβ1,4GlcNAcβ-O-Bn), 129 CPM; at ST3Gal-II [1], <0* CPM.

As to GD1a, at ST3Gal-II [2], the “Exchange of sialyl residues with CMP-sialic acid by ST3Gal-II” value is on record as “exchangeable”.

Regarding “[9-^3H]NeuAcα2,3Galβ1,4 GlcNAcβ-O—Al [[15]]”, the Radiolabeled acceptor/product formed is given as 24 CPM at ST3Gal-III (acceptor 2.5 mM Gal(1,4GlcNAc(1,3Gal(1,4GlcNAc(-O-Bn, 3 mU ST3Gal-III))))); 27 CPM at ST3Gal-III (acceptor 2.5 mM Galβ1,4GlcNAcβ1,6(Galβ1,3)GalNAcα-O-Bn, 3 mU ST3Gal-III); 5 CPM on ST3Gal-III (acceptor 2.5 mM Galβ1,4GlcNAcβ-O-Bn, 3 mU ST3Gal-III); <0* CPM at ST3Gal-II [1].

In the case of GT1b, the “Exchange of sialyl residues with CMP-sialic acid by ST3Gal-II” value on ST3Gal-II [2] is listed as “exchangeable”.
